Data: patent US20220387608A1, “ADRENOMEDULLIN-ANALOGUES FOR LONG-TERM STABILIZATION AND THEIR USE” (Bayer Aktiengesellschaft, priority 2019, published 2022)
Positions of bridges follow the written chain, without caps; N, C: chain ends. Non-standard residues stand in square brackets, D forms with d. Residues, ends and D or L forms follow the SMILES beside them. *: point of attachment. C18 diacid = O=C(O)CCCCCCCCCCCCCCCCC(=O)*; PEG5 = NCCOCCOCCOCCOCCOCCC(=O)O; PEG4 = NCCOCCOCCOCCOCCC(=O)O; PEG3 = NCCOCCOCCOCCC(=O)O

Target: T1, AM1R (Homo sapiens, UniProt O60895+Q16602)
T1 construct: EYFP; ECFP; expressed in transfected cells; host or cells: HEK-293 (transient co-transfection)
Assay: Activity determination in vitro: cAMP/CRE-luciferase reporter assay in HEK293 cells transiently co-transfected with CLR and RAMP2
Type: cell-based
Conditions: for Emax: HEK293, normalized to [G14]ADM(14-52); for EC50: HEK293 with CLR/RAMP2, CRE-luciferase, 3 h stimulation
Description: (1a) Activity Determination of Adrenomedullin Analogues in vitro
Cell Culture HEK-293 cells (human embryonic kidney cells) were cultured in Ham's F-12/DMEM (1/1; v/v) containing 15% FCS under humidified atmosphere at 37° C. and 5% CO2 in 75 cm^2 cell culture flasks.
Cells were cultured in 75 cm^2 flasks to 70-80% confluency. 45 μl Metafectene® Pro was diluted in 900 ρl Ham's F-12/DMEM (1/1; v/v) and incubated for 20 min at room temperature. 9 μg plasmid containing DNA of CLR fused to EYFP and 3 μg plasmid containing DNA of RAMP2 fused to ECFP were dissolved in 900 μl Ham's F-12/DMEM (1/1; v/v). The plasmid solution was mixed with the Metafectene® Pro solution and incubated for 25 min at room temperature. Medium was removed from the cells and replaced by 6 m1 Ham's F-12/DMEM (1/1; v/v) containing 15% FCS. After addition of transfection solution the cells were incubated for 3 h under humidified atmosphere at 37° C. and 5% CO2. For the second transfection 45 μl Metafectene® Pro was diluted in 900 μl Ham's F-12/DMEM (1/1; v/v) and incubated for 20 min at room temperature. 12 μg of pGL4.29[Luc2P/CRE/Hygro] plasmid containing DNA for the luciferase reporter gene luc2P (with CRE promotor region) were dissolved in 900 μl Ham's F-12/DMEM (1/1; v/v). The plasmid solution was mixed with the Metafectene® Pro solution and incubated for 25 min at room temperature. Medium was removed from the cells and replaced by 6 m1 Ham's F-12/DMEM (1/1; v/v) containing 15% FCS. After addition of transfection solution, the cells were incubated under humidified atmosphere at 37° C. and 5% CO2 over night.
For coating of 96-well-plates, 50 μl of a poly-D-lysine solution in DPBS (0.1 mg/ml) were pipetted in each well and incubated for 40 min. After removal of poly-D-lysine, each well was washed with 50 μl DPBS. Transiently transfected cells were detached from the cell culture flask by removal of the medium, 2-fold washing with 5 m1 DPBS and resuspending in 40 m1 Ham's F-12/DMEM (1/1; v/v) containing 15% FCS. 90,000 to 120,000 cells in 150 μl Ham's F-12/DMEM (1/1; v/v) containing 15% FCS were seeded per well and the plates were incubated under humidified atmosphere at 37° C. and 5% CO2 over night.
For each ligand, a serial dilution with eight different concentrations was prepared using Ham's F^12/DMEM (1/1; v/v). Before stimulation, the medium on the cells was replaced by 100 μl Ham's F^12/DMEM (1/1; v/v) and the plates were incubated for 1 h under humidified atmosphere at 37° C. and 5% CO2. For stimulation, the medium was removed and the cells were incubated for 3 h in 80 μl of ligand-solution under humidified atmosphere at 37° C. and 5% CO2. In addition 80 μl of a 5 μM forskolin solution in Ham's F-12/DMEM (1/1; v/v) was used as a positive control and 80 μl of Ham's F-12/DMEM (1/1; v/v) as a negative control. Each concentration and the controls were tested as triplicates.
After 3 h of stimulation, the solutions were removed and the cells were washed with 50 μl of Ham's F-12/DMEM (1/1; v/v) perwell. After 10 m incubation in 30 μl of Ham's F-12/DMEM (1/1; v/v) at room temperature, 30 μl of luciferase-solution (ONE-Glo™ Luciferase Assay System) was added and the luminescence was directly measured using an Infinite M200 (Tecan).
Data analysis of the luminescence measurement was carried out with GraphPad Prism 5. Therefore, the measured luminescence values of each plate were first corrected on the base of the respective average of forskolin stimulation. Afterwards they were normalized to [G14]ADM(14-52), which was used as standard peptide in every assay. After correction and normalization, data was analyzed using non-linear regression giving dose-response curves for each tested ligand.

T1 sequence (Q16602 23-461): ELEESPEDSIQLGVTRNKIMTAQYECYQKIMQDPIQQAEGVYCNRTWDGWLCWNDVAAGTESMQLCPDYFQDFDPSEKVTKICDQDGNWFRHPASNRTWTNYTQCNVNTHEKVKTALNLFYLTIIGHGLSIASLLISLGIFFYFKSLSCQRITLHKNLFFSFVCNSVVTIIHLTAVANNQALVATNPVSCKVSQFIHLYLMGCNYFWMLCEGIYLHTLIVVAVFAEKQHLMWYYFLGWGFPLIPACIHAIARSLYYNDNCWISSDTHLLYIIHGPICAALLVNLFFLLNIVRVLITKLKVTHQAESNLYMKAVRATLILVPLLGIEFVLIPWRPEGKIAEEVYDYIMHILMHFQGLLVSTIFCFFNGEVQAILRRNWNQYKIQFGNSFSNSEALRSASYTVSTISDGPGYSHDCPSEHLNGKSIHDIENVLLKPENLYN
T1 sequence (O60895 43-175): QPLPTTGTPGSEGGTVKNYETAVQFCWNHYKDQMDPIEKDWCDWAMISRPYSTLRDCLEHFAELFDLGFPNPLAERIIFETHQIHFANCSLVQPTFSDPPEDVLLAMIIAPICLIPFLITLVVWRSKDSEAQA

Emax [%] | EC50 [nM] | SMILES
77 ± 3 | 81 | CC[C@H](C)[C@H](NC(=O)[C@H](CCC(N)=O)NC(=O)[C@H](Cc1c[nH]cn1)NC(=O)[C@H](C)NC(=O)[C@H](CC(C)C)NC(=O)[C@H](CCCCN)NC(=O)[C@H](CCC(N)=O)NC(=O)[C@@H](NC(=O)[C@@H](NC(=O)[C@@H]1CSSC[C@H](NC(=O)CNC(=O)CN)C(=O)N[C@@H](CCCNC(=N)N)C(=O)N[C@@H](Cc2ccccc2)C(=O)NCC(=O)N[C@@H]([C@@H](C)O)C(=O)N1)[C@@H](C)O)C(C)C)C(=O)N[C@@H](Cc1ccc(O)cc1)C(=O)N[C@@H](CCC(N)=O)C(=O)N[C@@H](Cc1ccccc1)C(=O)N[C@H](C(=O)N[C@@H](CC(=O)O)C(=O)NCCOCCOCCOCCOCCC(=O)N[C@H](C(=O)N[C@@H](C)C(=O)N1CCC[C@H]1C(=O)N[C@@H](CCCNC(=N)N)C(=O)N[C@@H](CO)C(=O)N[C@@H](CCCCN)C(=O)N[C@H](C(=O)N[C@@H](CO)C(=O)N1CCC[C@H]1C(=O)N[C@@H](CCC(N)=O)C(=O)NCC(=O)N[C@@H](Cc1ccc(O)cc1)C(N)=O)[C@@H](C)CC)C(C)C)[C@@H](C)O [Example 10, ((4R,7S,13S,16S,19R)-19-(2-(2-aminoacetamido)acetamido)-13-benzyl-16-(3-guanidinopropyl)-7-((R)-1-hydroxyethyl)-6,9,12,15,18-pentaoxo-1,2-dithia-5,8,11,14,17-pentaazacycloicosane-4-carbonyl)-L-threonyl-ADM(23-35)-(1-(λ^2-azaneyl)-3,6,9,12-tetraoxapentadecan-15-oyl)-L-valyl-ADM(42-52)] (H-GGCRFGTCTVQKLAHQIYQFTD[PEG4]VAPRSKISPQGY-NH2; disulfide 3-8)
94 ± 2 | 39 | CC[C@H](C)[C@H](NC(=O)[C@H](CCC(N)=O)NC(=O)[C@H](Cc1c[nH]cn1)NC(=O)[C@H](C)NC(=O)[C@H](CC(C)C)NC(=O)[C@H](CCCCN)NC(=O)[C@H](CCC(N)=O)NC(=O)[C@@H](NC(=O)[C@@H](NC(=O)[C@@H]1CSSC[C@H](NC(=O)CNC(=O)CN)C(=O)N[C@@H](CCCNC(=N)N)C(=O)N[C@@H](Cc2ccccc2)C(=O)NCC(=O)N[C@@H]([C@@H](C)O)C(=O)N1)[C@@H](C)O)C(C)C)C(=O)N[C@@H](Cc1ccc(O)cc1)C(=O)N[C@@H](CCC(N)=O)C(=O)N[C@@H](Cc1ccccc1)C(=O)N[C@H](C(=O)NCCOCCOCCOCCOCCOCCC(=O)N[C@H](C(=O)N[C@@H](C)C(=O)N1CCC[C@H]1C(=O)N[C@@H](CCCNC(=N)N)C(=O)N[C@@H](CO)C(=O)N[C@@H](CCCCN)C(=O)N[C@H](C(=O)N[C@@H](CO)C(=O)N1CCC[C@H]1C(=O)N[C@@H](CCC(N)=O)C(=O)NCC(=O)N[C@@H](Cc1ccc(O)cc1)C(N)=O)[C@@H](C)CC)C(C)C)[C@@H](C)O [Example 11, ((4R,7S,13S,16S,19R)-19-(2-(2-aminoacetamido)acetamido)-13-benzyl-16-(3-guanidinopropyl)-7-((R)-1-hydroxyethyl)-6,9,12,15,18-pentaoxo-1,2-dithia-5,8,11,14,17-pentaazacycloicosane-4-carbonyl)-L-threonyl-ADM(23-34)-(1-(λ^2-azaneyl)-3,6,9,12,15-pentaoxaoctadecan-18-oyl)-L-valyl-ADM(42-52)] (H-GGCRFGTCTVQKLAHQIYQFT[PEG5]VAPRSKISPQGY-NH2; disulfide 3-8)
79 ± 5 | 431 | CC[C@H](C)[C@H](NC(=O)[C@H](CCC(N)=O)NC(=O)[C@H](Cc1c[nH]cn1)NC(=O)[C@H](C)NC(=O)[C@H](CC(C)C)NC(=O)[C@H](CCCCN)NC(=O)[C@H](CCC(N)=O)NC(=O)[C@@H](NC(=O)[C@@H](NC(=O)[C@@H]1CSSC[C@H](NC(=O)CNC(=O)CN)C(=O)N[C@@H](CCCNC(=N)N)C(=O)N[C@@H](Cc2ccccc2)C(=O)NCC(=O)N[C@@H]([C@@H](C)O)C(=O)N1)[C@@H](C)O)C(C)C)C(=O)N[C@@H](Cc1ccc(O)cc1)C(=O)N[C@@H](CCC(N)=O)C(=O)N[C@@H](Cc1ccccc1)C(=O)N[C@H](C(=O)N[C@@H](CC(=O)O)C(=O)NCCOCCOCCOCCOCCOCCC(=O)N[C@@H](C)C(=O)N1CCC[C@H]1C(=O)N[C@@H](CCCNC(=N)N)C(=O)N[C@@H](CO)C(=O)N[C@@H](CCCCN)C(=O)N[C@H](C(=O)N[C@@H](CO)C(=O)N1CCC[C@H]1C(=O)N[C@@H](CCC(N)=O)C(=O)NCC(=O)N[C@@H](Cc1ccc(O)cc1)C(N)=O)[C@@H](C)CC)[C@@H](C)O [Example 12, ((4R,7S,13S,16S,19R)-19-(2-(2-aminoacetamido)acetamido)-13-benzyl-16-(3-guanidinopropyl)-7-((R)-1-hydroxyethyl)-6,9,12,15,18-pentaoxo-1,2-dithia-5,8,11,14,17-pentaazacycloicosane-4-carbonyl)-L-threonyl-ADM(23-35)-(1-(λ^2-azaneyl)-3,6,9,12,15-pentaoxaoctadecan-18-oyl)-L-alanyl-ADM(43-52)] (H-GGCRFGTCTVQKLAHQIYQFTD[PEG5]APRSKISPQGY-NH2; disulfide 3-8)
94 ± 7 | 2.6 | CC[C@H](C)[C@H](NC(=O)[C@H](CCC(N)=O)NC(=O)[C@H](Cc1c[nH]cn1)NC(=O)[C@H](C)NC(=O)[C@H](CC(C)C)NC(=O)[C@H](CCCCN)NC(=O)[C@H](CCC(N)=O)NC(=O)[C@@H](NC(=O)[C@@H](NC(=O)[C@@H]1CSSC[C@H](NC(=O)CNC(=O)[C@@H](N)CCCCNC(=O)CCCCCCCCCCCCCCCCC(=O)O)C(=O)N[C@@H](CCCNC(=N)N)C(=O)N[C@@H](Cc2ccccc2)C(=O)NCC(=O)N[C@@H]([C@@H](C)O)C(=O)N1)[C@@H](C)O)C(C)C)C(=O)N[C@@H](Cc1ccc(O)cc1)C(=O)N[C@@H](CCC(N)=O)C(=O)N[C@@H](Cc1ccccc1)C(=O)N[C@H](C(=O)N[C@@H](CC(=O)O)C(=O)N[C@@H](CCCCN)C(=O)N[C@@H](CC(=O)O)C(=O)N[C@@H](CCCCN)C(=O)N[C@@H](CC(=O)O)C(=O)N[C@@H](CC(N)=O)C(=O)N[C@H](C(=O)N[C@@H](C)C(=O)N1CCC[C@H]1C(=O)N[C@H]1CCCCNC(=O)C[C@@H](C(=O)N2CCC[C@H]2C(=O)N[C@@H](CCC(N)=O)C(=O)NCC(=O)N[C@@H](Cc2ccc(O)cc2)C(N)=O)NC(=O)[C@H]([C@@H](C)CC)NC(=O)[C@H](CCCCN)NC(=O)[C@H](CO)NC1=O)C(C)C)[C@@H](C)O [Example 13] (H-K(C18 diacid)GCRFGTCTVQKLAHQIYQFTDKDKDNVAPKSKIDPQGY-NH2; disulfide 3-8; lactam 31-35)
92 ± 5 | 6.6 | CC[C@H](C)[C@H](NC(=O)[C@H](CCC(N)=O)NC(=O)[C@H](Cc1c[nH]cn1)NC(=O)[C@H](C)NC(=O)[C@H](CC(C)C)NC(=O)[C@H](CCCCN)NC(=O)[C@H](CCC(N)=O)NC(=O)[C@@H](NC(=O)[C@@H](NC(=O)[C@@H]1CSSC[C@H](NC(=O)CNC(=O)[C@@H](N)CCCCNC(=O)CCCCCCCCCCCCCCCCC(=O)O)C(=O)N[C@@H](CCCNC(=N)N)C(=O)N[C@@H](Cc2ccccc2)C(=O)NCC(=O)N[C@@H]([C@@H](C)O)C(=O)N1)[C@@H](C)O)C(C)C)C(=O)N[C@@H](Cc1ccc(O)cc1)C(=O)N[C@@H](CCC(N)=O)C(=O)N[C@@H](Cc1ccccc1)C(=O)N[C@H](C(=O)NCCOCCOCCOCCC(=O)N[C@@H](CC(=O)O)C(=O)N[C@@H](CC(N)=O)C(=O)N[C@H](C(=O)N[C@@H](C)C(=O)N1CCC[C@H]1C(=O)N[C@H]1CCCCNC(=O)C[C@@H](C(=O)N2CCC[C@H]2C(=O)N[C@@H](CCC(N)=O)C(=O)NCC(=O)N[C@@H](Cc2ccc(O)cc2)C(N)=O)NC(=O)[C@H]([C@@H](C)CC)NC(=O)[C@H](CCCCN)NC(=O)[C@H](CO)NC1=O)C(C)C)[C@@H](C)O [Example 14] (H-K(C18 diacid)GCRFGTCTVQKLAHQIYQFT[PEG3]DNVAPKSKIDPQGY-NH2; disulfide 3-8; lactam 28-32)
